What all share (format): cell-based
Assay [1] addresses T1, human TLR9 (Homo sapiens, UniProt Q9NR96).
T1 construct: host or cells: HEK-Blue cells
T1 sequence (Q9NR96 26-1032): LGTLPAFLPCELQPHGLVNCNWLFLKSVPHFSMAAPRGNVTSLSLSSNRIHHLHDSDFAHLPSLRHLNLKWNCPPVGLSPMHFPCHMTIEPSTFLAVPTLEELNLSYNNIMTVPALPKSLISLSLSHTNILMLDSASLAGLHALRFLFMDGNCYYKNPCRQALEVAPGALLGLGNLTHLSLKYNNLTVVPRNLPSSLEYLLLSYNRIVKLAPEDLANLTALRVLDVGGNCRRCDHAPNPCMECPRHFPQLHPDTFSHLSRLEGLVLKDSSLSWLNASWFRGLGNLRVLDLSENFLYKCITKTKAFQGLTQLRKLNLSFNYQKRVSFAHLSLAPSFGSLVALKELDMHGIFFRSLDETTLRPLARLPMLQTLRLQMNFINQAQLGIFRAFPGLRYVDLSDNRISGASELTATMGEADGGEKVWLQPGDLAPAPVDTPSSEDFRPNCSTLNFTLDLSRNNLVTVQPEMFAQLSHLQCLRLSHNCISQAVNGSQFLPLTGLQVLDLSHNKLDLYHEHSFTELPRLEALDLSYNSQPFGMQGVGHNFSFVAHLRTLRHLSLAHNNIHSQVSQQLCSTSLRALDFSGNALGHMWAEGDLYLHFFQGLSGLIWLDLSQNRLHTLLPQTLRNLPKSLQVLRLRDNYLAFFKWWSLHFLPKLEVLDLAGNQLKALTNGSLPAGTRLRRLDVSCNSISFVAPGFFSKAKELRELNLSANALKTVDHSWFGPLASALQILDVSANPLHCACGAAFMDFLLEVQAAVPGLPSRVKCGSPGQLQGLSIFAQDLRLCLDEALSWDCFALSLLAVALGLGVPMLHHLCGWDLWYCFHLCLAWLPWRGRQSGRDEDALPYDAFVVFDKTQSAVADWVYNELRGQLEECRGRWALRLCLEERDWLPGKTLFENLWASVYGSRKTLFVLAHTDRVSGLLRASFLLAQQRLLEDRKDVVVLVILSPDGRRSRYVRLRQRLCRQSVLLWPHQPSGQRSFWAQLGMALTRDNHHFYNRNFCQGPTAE
The assay can be described thus: TLR9 inhibition reporter assay (HEK-Blue, SEAP). The conditions noted are these: HEK-Blue cells overexpressing human TLR9, ODN2006 5 nM, 22 hour incubation. The method in brief: (§1)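 Agonists used: gardiquimod 7.5 μM (TLR7), R848 15.9 μM (TLR8), ODN2006 5 nM (TLR9), added after 30 min room-temperature compound pre-treatment (0.05 nM–50 μM) of receptor-overexpressing HEK-Blue cells. SEAP reporter (NF-κB/AP-1 driven) read after 22 h at 37 °C; inhibition scaled between agonist+DMSO and reference-inhibitor wells.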
For orientation: In a reporter assay the amount or activity of a reporter protein is the signal.

The target of assay [2] is T2, human TLR8 (Homo sapiens, UniProt Q9NR97).
T2 construct: host or cells: HEK-Blue cells
T2 sequence (Q9NR97 27-1041): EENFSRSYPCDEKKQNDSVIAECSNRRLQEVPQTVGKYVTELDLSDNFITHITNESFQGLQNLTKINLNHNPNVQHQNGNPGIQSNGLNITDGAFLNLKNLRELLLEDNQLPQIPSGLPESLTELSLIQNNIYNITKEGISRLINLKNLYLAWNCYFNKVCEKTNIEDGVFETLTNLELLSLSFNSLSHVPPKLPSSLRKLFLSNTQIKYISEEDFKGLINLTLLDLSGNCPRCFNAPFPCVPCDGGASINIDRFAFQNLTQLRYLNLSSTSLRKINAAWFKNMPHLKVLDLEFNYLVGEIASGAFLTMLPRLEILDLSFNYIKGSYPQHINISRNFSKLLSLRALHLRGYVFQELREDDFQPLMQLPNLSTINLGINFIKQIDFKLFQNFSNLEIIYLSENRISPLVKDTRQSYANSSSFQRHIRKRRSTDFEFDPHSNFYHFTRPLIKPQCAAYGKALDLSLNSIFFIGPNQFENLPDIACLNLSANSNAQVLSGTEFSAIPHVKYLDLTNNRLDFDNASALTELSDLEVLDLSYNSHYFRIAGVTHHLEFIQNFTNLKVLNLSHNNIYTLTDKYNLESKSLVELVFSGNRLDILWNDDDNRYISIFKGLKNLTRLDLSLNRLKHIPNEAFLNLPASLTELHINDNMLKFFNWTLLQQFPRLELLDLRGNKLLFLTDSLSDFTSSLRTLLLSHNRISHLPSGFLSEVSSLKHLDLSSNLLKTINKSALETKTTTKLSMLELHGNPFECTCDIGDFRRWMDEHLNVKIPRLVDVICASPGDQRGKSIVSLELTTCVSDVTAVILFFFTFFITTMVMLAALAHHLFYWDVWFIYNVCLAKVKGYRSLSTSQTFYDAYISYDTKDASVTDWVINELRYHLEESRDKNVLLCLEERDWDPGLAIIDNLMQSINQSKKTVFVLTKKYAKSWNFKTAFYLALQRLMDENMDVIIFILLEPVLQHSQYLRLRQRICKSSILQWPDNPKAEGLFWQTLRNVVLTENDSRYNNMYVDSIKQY
The assay can be described thus: TLR8 inhibition reporter assay (HEK-Blue, SEAP). The settings on record: HEK-Blue cells overexpressing human TLR8, R848 15.9 μM, 22 hour incubation. The method in brief:
as §1

Assay [3] addresses T3, human TLR7 (Homo sapiens, UniProt Q9NYK1).
T3 construct: host or cells: HEK-Blue cells
T3 sequence (Q9NYK1 27-1049): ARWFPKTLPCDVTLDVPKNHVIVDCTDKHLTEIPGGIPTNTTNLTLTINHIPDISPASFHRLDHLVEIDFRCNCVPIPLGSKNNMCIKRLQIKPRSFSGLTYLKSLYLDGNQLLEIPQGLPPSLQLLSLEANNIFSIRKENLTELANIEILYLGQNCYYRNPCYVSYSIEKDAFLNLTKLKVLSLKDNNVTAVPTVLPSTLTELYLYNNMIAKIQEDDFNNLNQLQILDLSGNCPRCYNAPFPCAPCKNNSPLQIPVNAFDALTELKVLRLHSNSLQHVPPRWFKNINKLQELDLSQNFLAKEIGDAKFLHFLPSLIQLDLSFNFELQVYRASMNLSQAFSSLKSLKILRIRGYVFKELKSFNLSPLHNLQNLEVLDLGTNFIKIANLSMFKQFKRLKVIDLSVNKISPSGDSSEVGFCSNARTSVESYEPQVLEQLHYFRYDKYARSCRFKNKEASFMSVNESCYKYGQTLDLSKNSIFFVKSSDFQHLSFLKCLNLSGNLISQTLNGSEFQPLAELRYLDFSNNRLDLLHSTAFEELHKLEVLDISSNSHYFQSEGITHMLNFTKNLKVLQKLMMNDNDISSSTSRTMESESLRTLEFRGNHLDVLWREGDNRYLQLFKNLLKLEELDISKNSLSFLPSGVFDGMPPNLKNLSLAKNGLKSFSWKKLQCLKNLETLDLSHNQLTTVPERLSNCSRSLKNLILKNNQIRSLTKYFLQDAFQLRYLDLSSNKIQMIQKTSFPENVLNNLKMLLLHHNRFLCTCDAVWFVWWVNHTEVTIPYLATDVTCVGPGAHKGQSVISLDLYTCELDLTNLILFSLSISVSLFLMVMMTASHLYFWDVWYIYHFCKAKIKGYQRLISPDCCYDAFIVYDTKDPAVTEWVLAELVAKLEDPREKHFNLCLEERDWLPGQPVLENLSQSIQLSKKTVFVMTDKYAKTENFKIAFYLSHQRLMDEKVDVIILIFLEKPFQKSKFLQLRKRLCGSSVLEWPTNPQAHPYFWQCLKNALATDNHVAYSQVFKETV
In words: TLR7 inhibition reporter assay (HEK-Blue, SEAP). The conditions noted are these: HEK-Blue cells overexpressing human TLR7, gardiquimod 7.5 μM, 22 hour incubation. The method in brief:
as §1

As usually defined, the IC50 is the concentration that gives 50% inhibition. Regarding `Cc1c(-c2[nH]c3ccc(C4CCN(C5CCOC5)CC4)cc3c2C(C)C)cn2cnnc2c1C` (stereo not drawn) [Example 93, 6-(3-isopropyl-5-(1-(tetrahydrofuran-3-yl)piperidin-4-yl)-1H-indol-2-yl)-7,8-dimethyl-[1,2,4]triazolo[4,3-a)pyridine], the IC50 was 2800 nM in assay [1], 4 nM in assay [2] and 1.6 nM in assay [3].
On the same counts, the results for `COc1cc(-c2[nH]c3ccc(C4CCN(C5CCOC5)CC4)cc3c2C(C)C)cn2cnnc12` (stereo not drawn) [Example 94, 6-(3-isopropyl-5-(1-(tetrahydrofuran-3-yl)piperidin-4-yl)-1H-indol-2-yl)-8-methoxy-[1,2,4]triazolo[4,3-a]pyridine] are 914 nM, 11.9 nM and 0.6 nM.
The corresponding values for `COc1cc(-c2[nH]c3ccc(C4CCN(C5CCC(F)(F)CC5)CC4)cc3c2C(C)C)cn2cnnc12` [Example 95, 6-(5-(1-(4,4-difluorocyclohexyl)piperidin-4-yl)-3-isopropyl-1H-indol-2-yl)-8-methoxy-[1,2,4] triazolo[4,3-a]pyridine] are 2080 nM, 20.5 nM and 0.7 nM.
The corresponding values for `COc1cc(-c2[nH]c3ccc(C4CCN(C)CC4)cc3c2C(C)C)cn2cnnc12` [Example 96, 6-(3-isopropyl-5-(1-methylpiperidin-4-yl)-1H-indol-2-yl)-8-methoxy-[1,2,4]triazolo[4,3-a)pyridine] are 376 nM, 35.8 nM and 1.2 nM.
For `COc1cc(-c2[nH]c3ccc(C4CCN(C(C)C)CC4)cc3c2C(C)C)cn2cnnc12` [Example 97, 6-(3-isopropyl-5-(1-isopropylpiperidin-4-yl)-1H-indol-2-yl)-8-methoxy-[1,2,4]triazolo[4,3-a]pyridine], the figures for the IC50 in assay [1], in assay [2] and in assay [3] were 768 nM, 56.1 nM and 2.3 nM, respectively.
On the same counts, the results for `Cc1c(-c2[nH]c3ccc(C4CCN(C)CC4)cc3c2C(C)C)cn2cnnc2c1C` [Example 98, 6-(3-isopropyl-5-(1-methylpiperidin-4-yl)-1H-indol-2-yl)-7,8-dimethyl-[1,2,4]triazolo[4,3-a]pyridine] are 1790 nM, 12.1 nM and 1 nM.
On the same counts, the results for `Cc1c(-c2[nH]c3ccc(C4CCN(C(C)C)CC4)cc3c2C(C)C)cn2cnnc2c1C` [Example 99, 6-(3-isopropyl-5-(1-isopropylpiperidin-4-yl)-1H-indol-2-yl)-7,8-dimethyl-[1,2,4]triazolo [4,3-a]pyridine] are 2220 nM, 8.3 nM and 1.7 nM.
The corresponding values for `Cc1c(-c2[nH]c3ccc(C4CCN(C5CC(C)(C)OC(C)(C)C5)CC4)cc3c2C(C)C)cn2cnnc2c1C` [Example 100, 6-(3-isopropyl-5-(1-(2,2,6,6-tetramethyltetrahydro-2H-pyran-4-yl)piperidin-4-yl)-1H-indol-2-yl)-7,8-dimethyl-[1,2,4]triazolo[4,3-a]pyridine] are 4440 nM, 31.6 nM and 13.7 nM.
As to `Cc1c(-c2[nH]c3ccc(C4CCN(C5CCC(F)(F)CC5)CC4)cc3c2C(C)C)cn2cnnc2c1C` [Example 101, 6-(5-(1-(4,4-difluorocyclohexyl)piperidin-4-yl)-3-isopropyl-1H-indol-2-yl)-7,8-dimethyl-[1,2,4] triazolo[4,3-a]pyridine], the IC50 in assay [1] was 1440 nM; in assay [2], 12.4 nM; in assay [3], 12.3 nM.
The corresponding values for `Cc1cc(-c2[nH]c3ccc(C4CCN(C(=O)CN(C)C)CC4)cc3c2C(C)C)cn2cnnc12` [Example 104, 2-(dimethylamino)-1-(4-(3-isopropyl-2-(8-methyl-[1,2,4]triazolo[4,3-a]pyridin-6-yl)-1H-indol-5-yl)piperidin-1-yl)ethanone] are 917 nM, 14.6 nM and 2.5 nM.
The corresponding values for `CC(C)c1c(-c2ccc3nncn3c2)[nH]c2ccc(C3CCN(C(=O)CN(C)C)CC3)cc12` [Example 105, 1-(4-(2-([1,2,4]triazolo[4,3-a]pyridin-6-yl)-3-isopropyl-1H-indol-5-yl)piperidin-1-yl)-2-(dimethylamino)ethan-1-one] are 188 nM, 134 nM and 5.9 nM.
Consider `Cc1nnc2ccc(-c3[nH]c4ccc(C5CCN(C(=O)CN(C)C)CC5)cc4c3C(C)C)cn12` [Example 106, 2-(dimethylamino)-1-(4-(3-isopropyl-2-(3-methyl-[1,2,4]triazolo[4,3-a]pyridin-6-yl)-1H-indol-5-yl)piperidin-1-yl)ethan-1-one], for which the results for the IC50 in assay [1], in assay [2] and in assay [3] were 382 nM, 39.1 nM and 43 nM, respectively.
